Measured values published in patent US20220177487A1, “FUSED POLYCYCLIC PYRIDONE COMPOUNDS AS INFLUENZA VIRUS REPLICATION INHIBITORS” (NIKANG THERAPEUTICS, INC., priority 2019, published 2022).

System: Influenza virus A/PR/8/34 (H1N1)
Test: in vitro cytopathic effect (CPE) assay in MDCK cells
Format: cell-based
Conditions: H1N1|PR/8, 120 h; MDCK cells infected with Influenza virus A/PR/8/34 (H1N1), 5 days, cell viability by CCK8

SMILES | EC50 [nM]
O=C1c2c(O)c(=O)ccn2N([C@H]2c3ccccc3SCc3cccc(F)c32)[C@@H]2[C@H]3C[C@@H]4CC[C@@]3(CCN12)O4 [Compound 4, (2S,4aS,14aR,14bR)-14-((R)-10-fluoro-6,11-dihydro-dibenzo[b,e]thiepin-11-yl)-9-hydroxy-1,3,4,5,6,14,14a,14b-octahydro-2H-2,4a-epoxypyrido[1′,2′:1,6][1,2,4]triazino[3,4-a]-isoquinoline-8,10-dione] | 52
O=C1c2c(O)c(=O)ccn2N(C2c3cccc(F)c3CCc3c(F)cccc32)[C@@H]2[C@H]3C[C@@H]4CC[C@@]3(CCN12)O4 [Compound 9, (2S,4aS,14aR,14bR)-14-(1,9-difluoro-10,11-dihydro-5H-dibenzo[a,d][7]annulen-5-yl)-9-hydroxy-1,3,4,5,6,14,14a,14b-octahydro-2H-2,4a-epoxypyrido[1′,2′:1,6][1,2,4]triazino[3,4-a]-isoquinoline-8,10-dione] | 20
O=C1c2c(O)c(=O)ccn2N([C@@H]2c3ccccc3SCc3cccc(F)c32)[C@@H]2[C@H]3C[C@@H]4CC[C@@]3(CCN12)O4 [Compound 3, (2S,4aS,14aR,14bR)-14-((S)-10-fluoro-6,11-dihydro-dibenzo[b,e]thiepin-11-yl)-9-hydroxy-1,3,4,5,6,14,14a,14b-octahydro-2H-2,4a-epoxypyrido[1′,2′:1,6][1,2,4]triazino[3,4-a]-isoquinoline-8,10-dione] | 2.1
O=C1c2c(O)c(=O)ccn2N(C2c3ccc(F)cc3CCc3cc(F)ccc32)[C@@H]2[C@H]3C[C@@H]4CC[C@@]3(CCN12)O4 [Compound 10, (2S,4aS,14aR,14bR)-14-(2,8-difluoro-10,11-dihydro-5H-dibenzo[a,d][7]annulen-5-yl)-9-hydroxy-1,3,4,5,6,14,14a,14b-octahydro-2H-2,4a-epoxypyrido[1′,2′:1,6][1,2,4]triazino[3,4-a]-isoquinoline-8,10-dione] | 3.6
